Experimental data from ChEMBL document CHEMBL4825708 (J Med Chem, 2021).
≈ marks a conversion by molar mass, not a printed value.

Legend:
in vivo [1] = settings: cynomolgus monkey, po, 1 mg/kg
in vivo [2] = settings: Sprague-Dawley, rat, po, 1 mg/kg
MCF7 = assay: cells; settings: Homo sapiens, MCF7, 72 h
Description: Antiproliferative activity against human MCF-7 cells incubated for 72 hrs by Cell-titer Glo assay

Estrogen receptor [3] = biological target: T1, Estrogen receptor (Homo sapiens, UniProt P03372)
T1 sequence (P03372 whole entry): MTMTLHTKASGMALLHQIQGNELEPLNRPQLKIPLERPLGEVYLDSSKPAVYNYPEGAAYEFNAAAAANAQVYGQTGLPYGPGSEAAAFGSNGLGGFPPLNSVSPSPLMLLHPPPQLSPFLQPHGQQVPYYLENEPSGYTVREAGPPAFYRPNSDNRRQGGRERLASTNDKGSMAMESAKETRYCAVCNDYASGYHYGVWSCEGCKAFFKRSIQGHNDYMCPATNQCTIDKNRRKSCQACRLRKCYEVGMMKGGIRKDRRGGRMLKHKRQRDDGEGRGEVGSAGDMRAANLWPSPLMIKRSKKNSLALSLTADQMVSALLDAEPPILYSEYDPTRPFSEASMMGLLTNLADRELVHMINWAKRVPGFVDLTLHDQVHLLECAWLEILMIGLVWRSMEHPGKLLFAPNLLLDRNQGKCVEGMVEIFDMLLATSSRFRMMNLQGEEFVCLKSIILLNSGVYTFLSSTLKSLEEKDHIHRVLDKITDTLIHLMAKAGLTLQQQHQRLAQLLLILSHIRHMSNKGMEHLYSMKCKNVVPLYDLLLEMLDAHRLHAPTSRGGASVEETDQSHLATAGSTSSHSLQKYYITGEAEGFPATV
Description: Antagonist activity at estrogen receptor in human T47D cells incubated for 18 hrs by ultra high sensitivity luminescence reporter gene assay

in vivo [4] = settings: cynomolgus monkey, iv, 1 mg/kg
[5] = Volume of distribution at steady state in cynomolgus monkey at 1 mg/kg, iv or po measured after 0.033 to 24 hrs by LC/MS/MS analysis; settings: in vivo
Cytochrome P450 2C19 = Cytochrome P450 2C19 (Homo sapiens, UniProt P33261); assay: Reversible inhibition of CYP2C19 in human liver microsomes using (S)-Mephenytoin as substrate preincubated for 40 mins followed by NADPH addition by LC/MS/MS analysis
[6] = Distribution coefficient, logD of the compound at pH 7.4; settings: octanol/water
CYP2C19 = CYP2C19 (Homo sapiens, UniProt P33261); assay: Time dependent inhibition of CYP2C19 in human liver microsomes using (s)-mephenytoin as substrate incubated for 40 mins by LC-MS/MS analysis
in vitro [7] = settings: cynomolgus monkey, cynomolgus monkey liver microsomes
[8] = biological target: Voltage-gated inwardly rectifying potassium channel KCNH2 (Homo sapiens, UniProt Q12809); assay: Inhibition of human ERG expressed in HEK293 cells incubated for 5 mins by patch clamp assay
in vitro [9] = settings: dog, dog hepatocytes
Nav1.5 = Nav1.5 (Homo sapiens, UniProt Q14524); assay: Inhibition of human Nav1.5 expressed in CHO cells at 10 uM by QPatch HT assay; settings: CHO cells expressing human Nav1.5
Estrogen receptor [10] = biological target: T1, Estrogen receptor; settings: mcf7
Description: Induction of estrogen receptor degradation in human MCF7 cells incubated for 4 hrs by Alexafluor -488 conjugate anti-mouse IgG staining based fluorescence method

[11] = Kinetic solubility of compound at pH 7.4; settings: buffer
CYP2C9 = CYP2C9 (Homo sapiens, UniProt P11712); assay: Time dependent inhibition of CYP2C9 in human liver microsomes using s-warfarin as substrate incubated for 30 mins by LC-MS/MS analysis
[12] = Half life in cynomolgus monkey at 1 mg/kg, iv or po measured after 0.033 to 24 hrs by LC/MS/MS analysis; settings: in vivo
in vivo [13] = settings: Sprague-Dawley, rat, iv, 1 mg/kg
in vivo [14] = settings: beagle, dog, iv, 1 mg/kg
Cav1.2 = Cav1.2 (Homo sapiens, UniProt Q13936); assay: Inhibition of human Cav1.2 expressed in CHO cells at 10 uM by QPatch HT assay; settings: CHO cells expressing human Cav1.2
in vitro [15] = settings: mouse, mouse liver microsomes
CYP3A4 [16] = biological target: T2, CYP3A4 (Homo sapiens, UniProt P08684); assay: Time dependent inhibition of CYP3A4 in human liver microsomes using midazolam as substrate incubated for 10 mins by LC-MS/MS analysis
[17] = Volume of distribution at steady state in Beagle dog at 1 mg/kg, iv or po measured after 0.033 to 24 hrs by LC/MS/MS analysis; settings: in vivo
[18] = Half life in Sprague-Dawley rat at 1 mg/kg, iv or po measured after 0.033 to 24 hrs by LC/MS/MS analysis; settings: in vivo
in vivo [19] = settings: beagle, dog, po, 1 mg/kg
CYP3A4 [20] = biological target: T2, CYP3A4; assay: Time dependent inhibition of CYP3A4 in human liver microsomes using testosterone as substrate incubated for 10 mins by LC-MS/MS analysis
in vitro [21] = settings: cynomolgus monkey, cynomolgus monkey hepatocytes
[22] = Apparent permeability in MDCK cells across apical to basolateral side at 10 uM incubated for 3 hrs by LC-MS/MS analysis; settings: dog
in vitro [23] = settings: rat, microsomes
in vivo [24] = settings: cynomolgus monkey, po, 100 mg/kg
Cytochrome P450 2D6 = Cytochrome P450 2D6 (Homo sapiens, UniProt P10635); assay: Reversible inhibition of CYP2D6 in human liver microsomes using dextromethorphan as substrate preincubated for 10 mins followed by NADPH addition by LC/MS/MS analysis
in vitro [25] = settings: rat, hepatocytes
in vitro [26] = settings: human, microsomes
in vitro [27] = settings: mouse, mouse hepatocytes
in vivo [28] = settings: Sprague-Dawley, rat, po, 100 mg/kg
in vitro [29] = settings: human, hepatocytes
CYP1A2 = biological target: T3, CYP1A2 (Homo sapiens, UniProt P05177); assay: Time dependent inhibition of CYP1A2 in human liver microsomes using phenacetin as substrate incubated for 30 mins by LC-MS/MS analysis
T3 sequence (P05177 whole entry): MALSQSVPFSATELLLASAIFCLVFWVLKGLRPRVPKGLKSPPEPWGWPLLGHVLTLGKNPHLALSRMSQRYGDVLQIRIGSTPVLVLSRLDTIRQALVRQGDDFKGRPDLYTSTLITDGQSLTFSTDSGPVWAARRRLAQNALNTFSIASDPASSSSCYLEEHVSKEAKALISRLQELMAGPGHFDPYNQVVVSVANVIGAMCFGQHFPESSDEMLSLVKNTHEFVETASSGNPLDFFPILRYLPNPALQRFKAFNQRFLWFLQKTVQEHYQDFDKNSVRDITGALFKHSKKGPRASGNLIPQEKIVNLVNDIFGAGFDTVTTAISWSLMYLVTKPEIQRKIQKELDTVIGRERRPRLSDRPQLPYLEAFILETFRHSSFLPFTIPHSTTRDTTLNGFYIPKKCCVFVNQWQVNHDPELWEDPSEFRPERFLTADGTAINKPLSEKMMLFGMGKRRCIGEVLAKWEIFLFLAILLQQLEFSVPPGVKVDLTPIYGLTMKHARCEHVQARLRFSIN

Cytochrome P450 2C9 = Cytochrome P450 2C9 (Homo sapiens, UniProt P11712); assay: Reversible inhibition of CYP2C9 in human liver microsomes using (s)-warfarin as substrate preincubated for 30 mins followed by NADPH addition by LC/MS/MS analysis
in vitro [30] = settings: dog, dog liver microsomes
[31] = Volume of distribution at steady state in Sprague-Dawley rat at 1 mg/kg, iv or po measured after 0.033 to 24 hrs by LC/MS/MS analysis; settings: in vivo
CYP2D6 = CYP2D6 (Homo sapiens, UniProt P10635); assay: Time dependent inhibition of CYP2D6 in human liver microsomes using dextromethorphan as substrate incubated for 10 mins by LC-MS/MS analysis
[32] = Half life in Beagle dog at 1 mg/kg, iv or po measured after 0.033 to 24 hrs by LC/MS/MS analysis; settings: in vivo

T2 sequence (P08684 whole entry): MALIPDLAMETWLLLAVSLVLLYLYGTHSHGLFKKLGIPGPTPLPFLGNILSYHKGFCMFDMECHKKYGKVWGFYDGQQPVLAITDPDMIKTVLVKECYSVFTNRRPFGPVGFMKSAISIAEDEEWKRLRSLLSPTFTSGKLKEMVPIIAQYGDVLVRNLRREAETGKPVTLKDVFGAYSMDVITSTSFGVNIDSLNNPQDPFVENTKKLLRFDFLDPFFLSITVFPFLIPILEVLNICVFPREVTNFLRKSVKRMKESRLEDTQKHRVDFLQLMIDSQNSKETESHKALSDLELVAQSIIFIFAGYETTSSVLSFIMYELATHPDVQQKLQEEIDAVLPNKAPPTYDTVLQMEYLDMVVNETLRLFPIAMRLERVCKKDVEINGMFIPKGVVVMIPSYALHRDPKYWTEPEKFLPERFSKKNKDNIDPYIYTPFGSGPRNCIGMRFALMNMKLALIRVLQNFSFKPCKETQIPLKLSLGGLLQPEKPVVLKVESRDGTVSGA
CYP2C19, sequence (P33261 whole entry): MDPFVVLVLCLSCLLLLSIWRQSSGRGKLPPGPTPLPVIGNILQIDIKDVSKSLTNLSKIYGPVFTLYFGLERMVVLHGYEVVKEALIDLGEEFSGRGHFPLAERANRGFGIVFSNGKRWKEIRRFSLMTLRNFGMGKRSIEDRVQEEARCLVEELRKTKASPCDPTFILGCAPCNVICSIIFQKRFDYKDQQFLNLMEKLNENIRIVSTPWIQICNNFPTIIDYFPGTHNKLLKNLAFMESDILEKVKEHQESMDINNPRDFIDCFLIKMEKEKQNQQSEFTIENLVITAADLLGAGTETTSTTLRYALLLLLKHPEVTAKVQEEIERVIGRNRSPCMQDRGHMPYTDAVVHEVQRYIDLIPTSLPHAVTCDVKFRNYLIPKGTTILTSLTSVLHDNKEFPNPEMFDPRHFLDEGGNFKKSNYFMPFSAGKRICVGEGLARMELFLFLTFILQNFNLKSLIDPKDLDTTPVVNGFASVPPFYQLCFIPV
Cytochrome P450 2C19, sequence (P33261 whole entry): as above
Cav1.2, sequence (Q13936 whole entry): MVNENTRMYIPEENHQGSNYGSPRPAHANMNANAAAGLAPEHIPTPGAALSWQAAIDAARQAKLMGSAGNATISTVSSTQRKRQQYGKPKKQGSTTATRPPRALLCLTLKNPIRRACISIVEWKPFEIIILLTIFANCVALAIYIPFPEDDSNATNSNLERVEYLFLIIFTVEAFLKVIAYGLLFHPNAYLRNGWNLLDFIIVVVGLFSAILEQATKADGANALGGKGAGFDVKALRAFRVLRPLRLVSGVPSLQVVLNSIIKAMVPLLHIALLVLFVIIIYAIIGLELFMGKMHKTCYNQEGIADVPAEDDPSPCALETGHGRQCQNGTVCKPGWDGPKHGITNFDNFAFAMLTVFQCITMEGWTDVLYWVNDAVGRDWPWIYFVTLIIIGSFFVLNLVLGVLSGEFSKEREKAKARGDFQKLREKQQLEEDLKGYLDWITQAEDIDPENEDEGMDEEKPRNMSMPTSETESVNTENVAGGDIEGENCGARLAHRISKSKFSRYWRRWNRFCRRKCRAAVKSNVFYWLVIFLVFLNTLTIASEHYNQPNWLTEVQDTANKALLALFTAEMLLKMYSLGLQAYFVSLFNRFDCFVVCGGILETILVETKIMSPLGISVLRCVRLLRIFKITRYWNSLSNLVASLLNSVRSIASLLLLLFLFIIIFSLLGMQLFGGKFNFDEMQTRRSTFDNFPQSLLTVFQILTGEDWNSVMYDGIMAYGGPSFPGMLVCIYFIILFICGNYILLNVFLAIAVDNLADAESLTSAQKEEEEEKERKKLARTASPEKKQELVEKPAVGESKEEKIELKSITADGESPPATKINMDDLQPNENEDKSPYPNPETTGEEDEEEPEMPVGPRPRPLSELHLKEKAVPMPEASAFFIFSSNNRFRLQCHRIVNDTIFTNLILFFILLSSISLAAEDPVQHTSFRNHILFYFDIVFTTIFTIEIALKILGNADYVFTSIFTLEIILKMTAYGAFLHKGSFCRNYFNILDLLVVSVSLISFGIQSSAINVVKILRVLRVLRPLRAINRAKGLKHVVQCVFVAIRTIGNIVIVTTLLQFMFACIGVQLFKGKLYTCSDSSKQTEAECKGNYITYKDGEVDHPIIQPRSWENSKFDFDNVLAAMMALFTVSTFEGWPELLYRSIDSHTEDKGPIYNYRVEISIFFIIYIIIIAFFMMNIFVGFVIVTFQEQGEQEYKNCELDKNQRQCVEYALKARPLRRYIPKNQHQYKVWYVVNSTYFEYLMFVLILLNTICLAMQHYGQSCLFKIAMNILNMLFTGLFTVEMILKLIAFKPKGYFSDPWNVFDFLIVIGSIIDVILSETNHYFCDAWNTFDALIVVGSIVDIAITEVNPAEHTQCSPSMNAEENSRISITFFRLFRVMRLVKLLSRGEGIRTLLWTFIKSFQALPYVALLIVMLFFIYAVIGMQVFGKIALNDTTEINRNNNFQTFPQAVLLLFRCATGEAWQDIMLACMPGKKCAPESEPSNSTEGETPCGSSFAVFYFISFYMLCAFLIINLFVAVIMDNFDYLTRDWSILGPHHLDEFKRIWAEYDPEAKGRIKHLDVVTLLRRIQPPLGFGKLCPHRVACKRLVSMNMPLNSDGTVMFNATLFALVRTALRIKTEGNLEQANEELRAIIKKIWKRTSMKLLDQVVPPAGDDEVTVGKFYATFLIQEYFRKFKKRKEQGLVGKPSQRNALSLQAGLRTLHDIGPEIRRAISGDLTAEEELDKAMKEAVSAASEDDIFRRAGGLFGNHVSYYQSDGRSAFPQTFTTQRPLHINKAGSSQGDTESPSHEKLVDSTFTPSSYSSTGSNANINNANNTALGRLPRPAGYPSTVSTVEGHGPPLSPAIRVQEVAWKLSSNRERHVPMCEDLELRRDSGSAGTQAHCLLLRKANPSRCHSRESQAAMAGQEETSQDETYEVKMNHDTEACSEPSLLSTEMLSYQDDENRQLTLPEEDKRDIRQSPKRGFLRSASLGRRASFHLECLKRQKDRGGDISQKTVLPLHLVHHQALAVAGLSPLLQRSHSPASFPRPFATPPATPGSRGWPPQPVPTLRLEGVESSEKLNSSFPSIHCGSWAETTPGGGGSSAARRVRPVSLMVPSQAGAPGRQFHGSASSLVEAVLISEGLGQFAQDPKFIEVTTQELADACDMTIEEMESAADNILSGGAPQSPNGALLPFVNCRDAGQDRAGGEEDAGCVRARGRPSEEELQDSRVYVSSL
Voltage-gated inwardly rectifying potassium channel KCNH2, sequence (Q12809 whole entry): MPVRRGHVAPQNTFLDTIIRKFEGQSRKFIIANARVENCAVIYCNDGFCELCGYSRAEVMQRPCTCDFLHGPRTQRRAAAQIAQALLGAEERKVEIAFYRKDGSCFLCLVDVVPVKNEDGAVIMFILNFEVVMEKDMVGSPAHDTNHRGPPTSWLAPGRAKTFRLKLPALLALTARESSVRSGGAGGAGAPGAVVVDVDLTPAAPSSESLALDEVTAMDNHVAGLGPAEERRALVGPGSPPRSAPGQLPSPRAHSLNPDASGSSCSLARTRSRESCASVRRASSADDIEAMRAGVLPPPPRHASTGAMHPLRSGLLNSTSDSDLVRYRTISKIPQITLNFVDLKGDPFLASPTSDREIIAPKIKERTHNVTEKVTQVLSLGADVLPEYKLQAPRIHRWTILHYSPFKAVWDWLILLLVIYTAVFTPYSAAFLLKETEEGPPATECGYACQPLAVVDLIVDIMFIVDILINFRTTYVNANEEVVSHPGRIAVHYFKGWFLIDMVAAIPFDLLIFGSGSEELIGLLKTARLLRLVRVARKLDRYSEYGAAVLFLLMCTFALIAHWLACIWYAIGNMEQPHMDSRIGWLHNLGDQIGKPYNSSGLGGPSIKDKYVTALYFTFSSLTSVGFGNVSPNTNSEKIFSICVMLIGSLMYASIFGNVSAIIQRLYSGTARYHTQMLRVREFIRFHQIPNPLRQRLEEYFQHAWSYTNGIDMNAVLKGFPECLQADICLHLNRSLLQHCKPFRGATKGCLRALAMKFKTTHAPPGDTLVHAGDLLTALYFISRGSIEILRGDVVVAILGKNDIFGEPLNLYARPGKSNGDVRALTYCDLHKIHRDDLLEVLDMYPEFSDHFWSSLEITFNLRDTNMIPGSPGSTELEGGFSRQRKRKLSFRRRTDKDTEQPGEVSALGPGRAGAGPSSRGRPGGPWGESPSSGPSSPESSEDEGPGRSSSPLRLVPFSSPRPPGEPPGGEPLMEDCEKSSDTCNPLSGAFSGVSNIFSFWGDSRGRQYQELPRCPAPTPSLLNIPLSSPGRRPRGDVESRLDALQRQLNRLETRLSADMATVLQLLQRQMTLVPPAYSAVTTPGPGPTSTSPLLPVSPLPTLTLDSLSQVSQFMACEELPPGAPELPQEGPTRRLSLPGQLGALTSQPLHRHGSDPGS

- bioavailability (in vivo [1]): 17%
- bioavailability (in vivo [2]): 41%
- EC50 (MCF7): 0.4 nM
- IC50 (Estrogen receptor [3]): 0.05 nM
- clearance (in vivo [4]): 19 mL/min/kg
- Vd [5]: 9.4 L/kg
- IC50 (Cytochrome P450 2C19): > 10 µM
- logD [6]: 2.9
- inhibition at 40 min (CYP2C19): 1.2%
- CLint scaled at 1 h, 1 µM (in vitro [7]): 22 mL/min/kg
- CLint scaled at 1 h (in vitro [9]): < 7.8 mL/min/kg
- DC50 (Estrogen receptor [10]): 0.03 nM
- solubility kinetic [11]: 135 µM (≈ 70.5 µg/mL)
- inhibition at 0.5 h (CYP2C9): 19%
- half-life [12]: 438 min
- clearance (in vivo [13]): 21 mL/min/kg
- clearance (in vivo [14]): 3 mL/min/kg
- CLint scaled at 1 h, 1 µM (in vitro [15]): 52 mL/min/kg
- inhibition at 10 min (CYP3A4 [16]): -0.9%
- Vd [17]: 5.1 L/kg
- half-life [18]: 480 min
- bioavailability (in vivo [19]): 55%
- inhibition at 10 min (CYP3A4 [20]): -4%
- CLint scaled at 1 h (in vitro [21]): 31 mL/min/kg
- Papp A→B at 3 h, 10 µM [22]: 3 ×10⁻⁶ cm/s
- CLint scaled at 1 h, 1 µM (in vitro [23]): 19 mL/min/kg
- bioavailability (in vivo [24]): 29%
- IC50 (Cytochrome P450 2D6): > 10 µM
- CLint scaled at 1 h (in vitro [25]): 23 mL/min/kg
- CLint scaled at 1 h, 1 µM (in vitro [26]): 11 mL/min/kg
- CLint scaled at 1 h (in vitro [27]): 33 mL/min/kg
- bioavailability (in vivo [28]): 65%
- CLint scaled at 1 h (in vitro [29]): 11 mL/min/kg
- inhibition at 0.5 h (CYP1A2): 1%
- IC50 (Cytochrome P450 2C9): > 10 µM
- CLint scaled at 1 h, 1 µM (in vitro [30]): 13 mL/min/kg
- Vd [31]: 15 L/kg
- inhibition at 10 min (CYP2D6): 8.1%
- half-life [32]: 1440 min
Structure (SMILES): C[C@@H]1Cc2c([nH]c3ccccc23)[C@@H](c2c(F)cc(NC3CN(CCCF)C3)cc2F)N1CC(F)(F)CO [GIREDESTRANT]
- IC50 [8]: 6.1 µM
- inhibition at 10 µM (Nav1.5): 16.7%
- inhibition at 10 µM (Cav1.2): 15.7%
